# Reference: article doi:10.1101/2023.02.27.530254, “Large library docking for cannabinoid-1 receptor agonists with reduced side effects” (bioRxiv, 2024)
# Several values for one entry are separate records, joined by “and”; a condition that tells them apart may be missing. Identical values can stand only once.
# Key:
# [1] = target: T1, hCB1 (Homo sapiens, UniProt P21554); test: Lance Ultra cAMP accumulation assay (inhibition of forskolin-stimulated cAMP), CHO cells; assay type: cell-based; parameters: expressed in transfected cells
# T1 sequence (P21554 whole entry): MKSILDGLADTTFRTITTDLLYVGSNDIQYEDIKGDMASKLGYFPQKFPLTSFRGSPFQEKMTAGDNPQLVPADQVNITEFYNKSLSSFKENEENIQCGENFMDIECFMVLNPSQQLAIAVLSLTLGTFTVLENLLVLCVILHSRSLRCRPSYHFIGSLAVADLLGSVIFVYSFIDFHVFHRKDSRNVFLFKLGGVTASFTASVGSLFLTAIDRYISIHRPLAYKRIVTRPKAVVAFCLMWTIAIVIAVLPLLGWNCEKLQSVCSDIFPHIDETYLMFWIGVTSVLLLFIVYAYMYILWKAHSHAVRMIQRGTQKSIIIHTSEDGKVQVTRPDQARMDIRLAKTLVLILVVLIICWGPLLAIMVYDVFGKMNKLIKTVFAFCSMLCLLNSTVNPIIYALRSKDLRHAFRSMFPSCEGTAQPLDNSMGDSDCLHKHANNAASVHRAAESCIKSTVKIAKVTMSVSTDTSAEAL
# Protocol: The inhibition of forskolin-stimulated cAMP accumulation assays was carried out using PerkinElmer’s Lance Ultra cAMP kit following the manufacturer’s protocol. In brief, CHO cells stably expressing human CB1R were harvested by incubation with Versene (ThermoFisher Scientific, Waltham, MA) for 10 min, washed once with Hank’s Balanced Salt Solution, and resuspended in stimulation buffer at ~200 cells/μL density. The ligands at eight different concentrations (0.001–10,000 nM) in stimulation buffer (5 μL) containing forskolin (2 μM final concentration) were added to a 384-well plate followed by the cell suspension (5 μL; ~1000 cells/well). The plate was incubated for 30 min at room temperature. Eu-cAMP tracer (5 μL) and Ulight-anti-cAMP (5 μL) working solutions were then added to each well, and the plate was incubated at room temperature for an additional 60 min. Results were measured on a Perkin-Elmer EnVision plate reader. The EC50 values were determined by nonlinear regression analysis using Prism software (GraphPad Software, Inc., San Diego, CA) and are expressed as the mean of three experiments, each performed in triplicate.
# [2] = target: T2, CB1 (Rattus norvegicus, UniProt P20272); test: Radioligand competition binding with [3H]-CP-55,940, rat brain membranes; conditions: for Ki: [3H]-CP-55,940 competition, rat brain membranes
# T2 construct: membrane preparations from rat brain (source of CB1); tissue Bioivt RAT00BRAINMZN; host or cells: rat brain
# T2 sequence (P20272 whole entry): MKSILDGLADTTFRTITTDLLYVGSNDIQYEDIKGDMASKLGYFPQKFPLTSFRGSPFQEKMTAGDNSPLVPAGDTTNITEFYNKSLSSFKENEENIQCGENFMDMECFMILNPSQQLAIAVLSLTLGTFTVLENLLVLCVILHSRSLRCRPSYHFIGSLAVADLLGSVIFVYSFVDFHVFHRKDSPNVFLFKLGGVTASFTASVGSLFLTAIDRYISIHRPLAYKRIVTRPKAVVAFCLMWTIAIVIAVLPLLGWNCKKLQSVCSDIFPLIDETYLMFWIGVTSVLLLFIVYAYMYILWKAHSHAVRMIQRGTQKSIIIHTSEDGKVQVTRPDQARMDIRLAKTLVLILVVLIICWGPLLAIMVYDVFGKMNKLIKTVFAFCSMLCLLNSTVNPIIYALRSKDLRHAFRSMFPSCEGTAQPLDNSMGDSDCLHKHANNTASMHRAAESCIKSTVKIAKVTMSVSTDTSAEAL
# Protocol: The results were analyzed using nonlinear regression to determine the IC50 and Ki values for each ligand (Prism by GraphPad Software, Inc., San Diego, CA). The Ki values are expressed as the mean of two to three experiments each performed in triplicate.
# [3] = target: T1, hCB1; test: bioSens-All ebBRET effector biosensor signaling profiling, HEK293; assay type: cell-based; parameters: host or cells: HEK293 (HEK293SL clone), transient
# Protocol: ebBRET-based effector membrane translocation biosensor assays were conducted at Domain Therapeutics NA Inc. (Montreal, QC, Canada) as previously described. […] HEK293 cells were maintained in Dulbecco’s Modified Eagle Medium (DMEM) (Wisent) supplemented with 1% penicillin- streptomycin (Wisent) and 10% (or 2 % for transfection) fetal bovine serum (Wisent) at 37°C with 5% CO2. All biosensor-coding plasmids and related information are the property of Domain Therapeutics NA Inc. The total amount of transfected DNA was adjusted and kept constant at 1 μg per mL of cell culture to be transfected using salmon sperm DNA (Invitrogen) as ‘carrier’ DNA, PEI (polyethylenimine 25 kDa linear, PolyScience) and DNA (3:1 ml PEI:mg DNA ratio) were first diluted separately in 150 mM NaCl then mixed and incubated for at least 20 minutes at room temperature to allow for the formation of DNA/PEI complexes. During the incubation, HEK293 cells were detached, counted, and re-suspended in maintenance medium to a 350,000 cells per mL density. At the end of the incubation period, the DNA/PEI mixture was added to the cells. Cells were finally distributed in 96-well plates (White Opaque 96-well /Microplates, Greiner) at a density of 35,000 cells per well. Forty-eight hours post-transfection, medium was aspirated and replaced with 100 μl of Hank’s Balanced Salt Solution buffer (HBSS) (Wisent) per well using 450-Select TS Biotek plate washer. After 60 min incubation in this medium, 10 μL of 10 μM e-Coelenterazine Prolume Purple (Methoxy e-CTZ) (Nanolight) was added to each well for a final concentration of 1 μM immediately followed by addition of increasing concentrations of the test compounds to each well using the HP D300 digital dispenser (Tecan). All compounds were assayed at 22 concentrations with each biosensor after a 10-minute room temperature incubation period. […] All BRET ratios were standardized using the universal BRET (uBRET) equation: uBRET=BRETratio-A/B-A×10,000 where A is the BRET ratio obtained from transfection of negative control and B is the BRET ratio obtained from transfection of positive control. […] The data were analyzed using the four-parameter logistic non-linear regression model in GraphPad Prism 9.1 and data were presented as means ± CIs of 1–4 independent experiments.
# The SEM was calculated for the logEmax/EC50 ratios using the following equation: SEM=σ/n where σ is the standard deviation, and n is the number of experiments.
# [4] = target: T3, CB1R (Homo sapiens, UniProt P21554, C107A/C139A/C149A/C238A/C355A/C382A/C386A/C415A/C431A/C449A/C98A/R336C); test: Bimane fluorescence of TM6-labeled minimal cysteine CB1R; assay type: biochemical; conditions: 10 μM ligand; apo 459 nm
# T3 construct: N-terminal FLAG tag and C-terminal histidine tag was added to human full-length CB1; FLAG (N); histidine tag (C); made in house; host or cells: Spodoptera frugiperda Sf9 (baculovirus)
# T3 sequence (P21554 whole entry C98A/C107A/C139A/C149A/C238A/R336C/C355A/C382A/C386A/C415A/C431A/C449A): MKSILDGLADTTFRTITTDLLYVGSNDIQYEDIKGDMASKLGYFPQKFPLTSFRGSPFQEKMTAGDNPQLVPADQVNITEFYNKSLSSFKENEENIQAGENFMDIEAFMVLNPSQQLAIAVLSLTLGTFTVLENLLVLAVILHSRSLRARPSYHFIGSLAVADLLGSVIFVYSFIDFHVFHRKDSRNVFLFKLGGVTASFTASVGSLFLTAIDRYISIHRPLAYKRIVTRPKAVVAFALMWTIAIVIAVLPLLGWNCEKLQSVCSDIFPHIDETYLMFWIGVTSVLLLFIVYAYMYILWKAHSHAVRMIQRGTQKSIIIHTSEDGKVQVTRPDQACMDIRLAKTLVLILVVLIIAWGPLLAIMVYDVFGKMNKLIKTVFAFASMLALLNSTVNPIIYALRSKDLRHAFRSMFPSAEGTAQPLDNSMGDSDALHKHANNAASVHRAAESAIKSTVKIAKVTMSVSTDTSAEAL
# Protocol: A minimal cysteine version of CB1R was generated[73] where all the cysteine residues (except C256 and C264) were mutated to alanine. […] Excess label was removed using size exclusion chromatography on a Superdex 200 10/300 Increase column in 20 mM HEPES pH 7.5, 100 mM NaCl and 0.01% MNG/0.001% CHS. Bimane-labeled CB1R at […] was incubated with ligands (10 μM) for one hour at room temperature. Fluorescence data was collected at room temperature in a 150 μL cuvette with a FluorEssence v3.8 software on a Fluorolog instrument (Horiba) in photon-counting mode. Bimane fluorescence was measured by excitation at 370 nm with excitation and emission bandwidth passes of 4 nm. The emission spectra were recorded from 410 to 510 nm with 1 nm increment and 0.1 s integration time.
# [5] = tested on: C56BL/6 mice; test: Conditioned place preference; conditions: mouse, in vivo
# Protocol: To determine if ‘4042 was inherently rewarding or aversive we used the conditioned place paradigm as described. Briefly, mice were first habituated to the test apparatus, twice, and their preference for each chamber recorded for 30 minutes (Pretest). Two conditioning days followed in which mice received the vehicle control or the compound, and 30 minutes later restricted for 30 minutes in the preferred or non-preferred chamber, respectively. On day 5 (Test day), mice were allowed to roam freely between the 3 chambers of the apparatus and their preference for each chamber recorded for 30 minutes. To calculate the CPP score, we subtracted the time spent in each chamber of the box on the Pretest day from that of the Test day (CPP score = Test - Pretest).
Compound,EC50 [1] [nM],"Emax ([1]; CHO, read-out: hCB1 Lance Ultra cAMP Emax [95% CI]) [%]","Emax ([2]; maximal radioligand displacement, read-out: rCB1 binding Emax [SEM]) [%]",Ki ([2]; rCB1 binding Ki [95% CI]),Ki ([2]; rCB1 binding pKi [95% CI]) [nM],"Emax ([3]; HEK293, read-out: hCB1 Gi1 Emax [95% CI]) [%]","Emax ([3]; HEK293, read-out: hCB1 GoB Emax [95% CI]) [%]","Emax ([3]; HEK293, read-out: hCB1 Gz Emax [95% CI]) [%]","EC50 ([3]; hCB1 Gi1 EC50 [95% CI], Gi1 sensor) [nM]","EC50 ([3]; hCB1 GoB EC50 [95% CI], GoB sensor) [nM]","EC50 ([3]; hCB1 GoB pEC50 [95% CI], GoB sensor) [nM]","EC50 ([3]; hCB1 Gz EC50 [95% CI], Gz sensor) [nM]",bimane spectrum λmax [4] [nm],conditioned place preference [5]
COC(=O)[C@](C)(NC(=O)c1cc(C)n(-c2cccc(C(F)(F)F)c2)n1)c1cccs1 [‘8690],473,53,100,90 nM and 90.2 nM,79.4,82,83,98,19.1,18,15.8,33,459,–
"CN1CC[C@]23c4c5ccc(O)c4O[C@H]2[C@@H](O)C=C[C@H]3[C@H]1C5 [morphine, reference compound]",–,–,–,–,–,–,–,–,–,–,–,–,–,significantly increased their preference
